The values below come from US3995058A, “Treatment of ethanol withdrawal symptoms with levodopa” (priority 1975, dated 1976).

Like-named read-outs stand apart in the source and are kept apart here.

For orientation: TD50 means the dose at which the toxic effect under study appears in half of the subjects. High values mean harm only at a large dose, low ones harm at a small dose.

The subject of series [1] is parkinsonism tremor. To be noted: in vivo; cited from earlier work.
Series [2] concerns ethanol withdrawal head-twitches. In words: Suppression of ethanol withdrawal head-twitches in mice habituated to ethanol. As to conditions: for ED50: Mus musculus; for suppression of head-twitches: mice undergoing ethanol withdrawal. It counts as in vivo, mice (male T/O). On the procedure:
(§1) Male T/O mice were habituated to ethanol by oral administration of aqueous ethanol solutions over three days. Ethanol was administered as a 40% w/v solution, the animals receiving 4 g/kg on the first day, 5 g/kg on the second day and 6 g/kg on the third day. Twenty-four hours after the third dose, approximately 12 hours after blood ethanol had fallen to zero, mice were observed over a period of 4 minutes in groups of five and the number of head-twitches were recorded for each animal. All animals received two doses of levodopa or vehicle, one 6 hours after the last dose of ethanol and the other one hour before observation of the animals. The amount of discoordination produced by each treatment was also determined by measuring the animals' ability to remain for 1 minute on a drum, 30 cm diameter, rotating at a speed of 1 rpm. Using a quantal method the median effective dose (ED50) to suppress head-twitches was determined. […] The ratio FD50 to ED50 gives the therapeutic ratio.
All drugs given one hour before observation except noradrenaline (35
minutes). Doses are expressed as mg/kg orally (P.O.), subcutaneously
(S.C.) or intracerebrally (I.C.V.). *Animals in levodopa experiment
received two doses of levodopa or vehicle, the first being given six hour
after the last dose of ethanol, the second one hour before observation.
The values indicated are computed from the doses of levodopa given on eac
(§2) occasion. The dose of each drug to discoordinate 50% of the animals (FD
(§3) 50) was compared with the dose that reduced to 50% the proportion of mice
(§4) showing head-twitches (ED 50).

Series [3] in a line: Therapeutic ratio FD50/ED50 (discoordination against head-twitches). As to conditions: mouse, in vivo. How it is done: as §1, §2, §3, §4
Series [4] can be described thus: Discoordination: ability to remain for 1 minute on a rotating drum. As to conditions: mouse, in vivo; for TD50 at 1 h: po. How it is done:
as §1, §2, §3

Series [5] concerns sleep. To be noted: cited from earlier work.
For series [6], the system named is brain catecholamines. As to conditions: increasing doses of levodopa; cited from earlier work.
The subject of series [7] is depression. To be noted: in vivo; cited from earlier work.
Series [8] has as its system discoordination. In words: Discoordination: ability to remain for 1 minute on a rotating drum. As to conditions: mouse, in vivo. How it is done: as §1, §2, §3
The test system of series [9] is delirium tremors or seizures. As to conditions: severe cases of physical dependence; cited from earlier work.
Series [10] relates to withdrawal symptoms. In words: Production of withdrawal symptoms. To be noted: in vivo.

With `NC(CO)C(=O)NNCc1cc(O)c(O)c(O)c1` (racemic) [N'-(D,L-seryl)-N"-(3,4,5-trihydroxybenzyl)-hydrazine], in series [1], the “control of parkinsonism tremor” value is on record as “useful in the control of parkinsonism tremor”.
In the case of `CC(N)Cc1ccccc1.O=S(=O)(O)O` (centres unmarked) [Amphetamine sulphate], in [2] (sc, 1 h, read-out: ED 50 value to reduce head-twitches (with 95% fiducial limits)), the ED50 turned out to be 7.18 mg/kg. Also, the suppression of head-twitches result in series [2] (subcutaneously) is given as “complete suppression of head-twitches”.
On to `CCO` [Ethanol, ethanol], for which the selectivity ratio in series [3] (po) was determined as 0.6. Also, the ED50 in series [2] (po, 1 h, P.O., one hour before observation, read-out: ED 50 value to reduce head-twitches (with 95% fiducial limits)) was found to be 3990 mg/kg. The same molecule displayed a TD50 at 1 h in series [4] of 2500 mg/kg.
Regarding `N[C@@H](Cc1ccc(O)c(O)c1)C(=O)O` [L-DOPA, L-β-3,4-dihydroxyphenylalanine], the “effect on sleeping time with repeated doses” value in series [5] (increasing numbers of doses) was “this effect became smaller with increasing numbers of doses”. Besides, in series [5] (single dose 400 mg/kg), the “increase in sleeping time” value is “three-fold increase in sleeping time”. Further, in series [6], the “shift of brain catecholamine levels” value is reported as “increasing shift of brain levels from dopamine to noradrenaline”. For the same molecule, the selectivity ratio in [3] (po) stood at 3.5. Besides, the ED50 in series [2] (po, P.O.*, two doses: 6 h after last ethanol and 1 h before observation, per-occasion dose, limits 63-1213, read-out: ED 50 value to reduce head-twitches (with 95% fiducial limits)) was determined as 232 mg/kg; in series [2] (po, levodopa, text of summary, read-out: median effective dose (ED50) required to prevent or suppress withdrawal symptoms), 231 mg/kg. Besides, in series [7], the “therapeutic use in the treatment of depression” value is listed as “of questionable value”. Moreover, the TD50 at 1 h in series [4] is more than 800 mg/kg. Also, in series [8], the animals discoordinated result is given as “none of the animals were discoordinated”.
On to `NC[C@H](O)c1ccc(O)c(O)c1` [Noradrenaline], for which, in series [3], the selectivity ratio is more than 3.3. For the same molecule, the ED50 in series [2] (central, 35 min, I.C.V., 35 minutes before observation, read-out: ED 50 value to reduce head-twitches (with 95% fiducial limits)) was 0.003 mg/kg. Moreover, the suppression of head-twitches result in [2] (intracerebral injection) is “complete suppression of head-twitches”. The molecule also displayed a TD50 at 35 min in series [4] (icv or intrathecal) of more than 0.01 mg/kg.
In the case of `CCCC(C)C1(CC)C(=O)NC(=O)NC1=O` (centres unmarked) [Pentobarbitone sodium], the selectivity ratio in series [3] (po) was 0.4. Moreover, the ED50 in [2] (po, 1 h, read-out: ED 50 value to reduce head-twitches (with 95% fiducial limits)) was 231 mg/kg. In series [4], this molecule displayed a TD50 at 1 h of 91 mg/kg.
Consider `CN(C)CCCN1c2ccccc2Sc2ccc(Cl)cc21` [chlorpromazine], for which the “prevention of delirium tremors or seizures” value in series [9] is recorded as “ineffective to prevent delirium tremors or seizures”.
Take `CN(C)CCCN1c2ccccc2Sc2ccccc21` [promazine]: the “prevention of delirium tremors or seizures” value in [9] is listed as “ineffective to prevent delirium tremors or seizures”.
Take `CC(N)(Cc1ccc(O)cc1)C(=O)O` (stereo not drawn) [α-methyl p-tyrosine]: the withdrawal symptoms produced result in series [10] is listed as “produces withdrawal symptoms that can be reduced by anti-serotonin agents”.
For the molecule `CC(Cc1ccc(O)c(O)c1)(NN)C(=O)O` (stereo not drawn) [α-methyl-dopa hydrazine], the “control of parkinsonism tremor” value in series [1] is given as “useful in the control of parkinsonism tremor”.
